Source: patent US9510598B2, “Nitrogen-containing heterocyclic compounds for plant disease control” (BAYER CROPSCIENCE AG, priority 2012, dated 2016)
Values joined by “and” are separate entries in the source; they are usually repeats but may differ in a detail not shown here. Equal values may be shown once. Read-outs that look alike come from different tables or passages of the source.

Columns and labels:
Uromyces appendiculatus = experiment: In vivo preventive test on Uromyces appendiculatus (bean rust); settings: 500 ppm; bean plants sprayed 24 hours before contamination; grading 10 days after contamination vs control plants
Protocol: Bean plants (“Saxa” variety), sown in starter cups on a 50/50 peat soil-pozzolana substrate and grown at 24° C., are treated at the 2-leaf stage (9 cm height) by spraying with the active ingredient prepared as described above. Plants, used as controls, are treated with the mixture of acetone/tween/DMSO/water not containing the active material. After 24 hours, the plants are contaminated by spraying the leaves with an aqueous suspension of Uromyces appendiculatus spores (150 000 spores per ml).

Puccinia recondita = experiment: In vivo preventive test on Puccinia recondita (brown rust on wheat); settings: 500 ppm; wheat plants sprayed 24 hours before contamination; grading 10 days after contamination vs control plants
Outline: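 Wheat (Scipion) grown at 22° C./20° C. (12 h each), sprayed with active ingredient at 1-leaf stage (10 cm); controls sprayed with acetone/tween/DMSO/water lacking active. Leaves inoculated 24 hours later with Puccinia recondita spore suspension (100 000 spores per ml).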

Alternaria brassicae = experiment: In vivo preventive test on Alternaria brassicae (leaf spot on radish); settings: 500 ppm; radish plants sprayed 24 hours before contamination; grading 5 days after contamination vs control plants
Outline: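 Radish plants ('Pernod Clair', grown at 17 °C) were spray-treated at the 2-leaf stage; controls received solvent mix only. After 24 h, leaves were sprayed with 50 000 spores/ml from 15-day-old cultures, and % efficacy was graded 5 days post-inoculation against controls.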

[1] = format: physicochemical
Septoria tritici = experiment: In vivo preventive test on Septoria tritici (leaf spot on wheat); settings: 500 ppm; wheat plants sprayed 24 hours before contamination; grading 21 to 28 days after contamination vs control plants
Outline: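 Scipion wheat at 1-leaf stage sprayed with compound, controls receiving acetone/tween/DMSO/water vehicle; 24 h later leaves inoculated with Septoria tritici spores (500 000 spores per ml). Efficacy (%) graded versus control plants 21 to 28 days after contamination.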

Pyrenophora teres = experiment: In vivo preventive test on Pyrenophora teres (net blotch on barley); settings: 500 ppm; barley plants sprayed 24 hours before contamination; grading 12 days after contamination vs control plants
Protocol: Barley plants (“Plaisant” variety), sown in starter cups on a 50/50 peat soil-pozzolana substrate and grown at 22° C. (12 h)/20° C. (12 h), are treated at the 1-leaf stage (10 cm height) by spraying with the active ingredient prepared as described above. Plants, used as controls, are treated with the mixture of acetone/tween/DMSO/water not containing the active material. After 24 hours, the plants are contaminated by spraying the leaves with an aqueous suspension of Pyrenophora teres spores (12 000 spores per ml). The spores are collected from a 12-day-old culture. […] Grading (% of efficacy) is carried out 12 days after the contamination, in comparison with the control plants.

Sphaerotheca fuliginea = experiment: In vivo preventive test on Sphaerotheca fuliginea (powdery mildew on cucurbits); settings: 500 ppm; gherkin plants sprayed 24 hours before contamination; grading 12 days after contamination vs control plants
Outline: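 Preventive spray of gherkin plants at Z11 cotyledon stage, grown at 24° C; inoculation 24 hours later with Sphaerotheca fuliginea spores (100 000 spores per ml). Efficacy graded 12 days post-inoculation as % versus solvent-treated control plants.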

Peronospora parasitica = experiment: In vivo preventive test on Peronospora parasitica (crucifer downy mildew); settings: 500 ppm; cabbage plants sprayed 24 hours before contamination; grading 5 days after contamination vs control plants
Protocol: Cabbage plants (Eminence variety) in starter cups, sown on a 50/50 peat soil-pozzolana substrate and grown at 18-20° C., are treated at the cotyledon stage by spraying with the aqueous suspension described above. Plants, used as controls, are treated with an aqueous solution not containing the active material. After 24 hours, the plants are contaminated by spraying them with an aqueous suspension of Peronospora parasitica spores (50.000 spores per ml). The spores are collected from infected plant. The contaminated cabbage plants are incubated for 5 days at 20° C., under a humid atmosphere. Grading is carried out 5 days after the contamination, in comparison with the control plants.

Botrytis cinerea = experiment: In vivo preventive test on Botrytis cinerea (grey mould); settings: 500 ppm; gherkin plants sprayed 24 hours before contamination; grading 4-5 days after contamination vs control plants
Outline: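 Gherkin plants ("Vert petit de Paris") sprayed with compound at Z11 cotyledon stage, then inoculated 24 h later with B. cinerea spores (50 000/ml) in PDB/fructose/NH4NO3/KH2PO4 nutrient solution. Incubated at 17 °C, 80% RH; % efficacy versus solvent-treated controls graded 4–5 days after contamination.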

Phytophthora infestans = format: in vivo; settings: 500 ppm; tomato plants sprayed 24 hours before contamination; grading 5 days after contamination vs control plants
[2] = method [a]: HPLC/LC-MS on reversed phase at pH 2.7, 0.1% formic acid in water / acetonitrile, gradient 10% to 95% acetonitrile
[3] = method [a]: HPLC/LC-MS on reversed phase at pH 2.7, 0.1% formic acid in water / acetonitrile, linear gradient 10% to 95% acetonitrile

SMILES	% of efficacy (protection) (Uromyces appendiculatus) [%]	% of efficacy (protection) (Puccinia recondita) [%]	% of efficacy (protection) (Alternaria brassicae)	log P [1, 2]	% of efficacy (protection) (Septoria tritici)	% of efficacy (protection) (Pyrenophora teres) [%]	% of efficacy (protection) (Sphaerotheca fuliginea)	Grading, protection (Peronospora parasitica) [%]	log P [1, 3]	% of efficacy (protection) (Botrytis cinerea) [%]	% of efficacy (protection) (Phytophthora infestans) [%]	log P ([1]; HPLC on reversed phase columns, method [a]: pH 2.7, 0.1% formic acid in water / acetonitrile, linear gradient 10% to 95% acetonitrile)
CCn1cc(CNC(=O)C2(C)CC(c3ccc4ncc(C(F)(F)F)cc4c3)=NO2)c(C)n1 (racemic) [compound 383]	99	94	83%	2.45[a]	100%	86						
CC(C)NC(=O)C1(C)CC(c2ccc3ncc(C(F)(F)F)cc3c2)=NO1 (racemic) [compound 384]	79	89	83%	2.90[a]	100%	86						
CC(C)NC(=O)C1(C)CC(c2ccc3ncc(N)cc3c2)=NO1 (racemic) [compound 435]	77			1.19[a]		83						
COC1(C(=O)NC(C)C)CC(c2ccc3ncc(I)cc3c2)=NO1 (racemic) [compound 436]	100	94		2.75[a]	100%	92	100%					
CC(C)NC(=O)C1(C)CC(c2ccc3ncc(Br)cc3c2)=NO1 (centres unmarked) [compound 31]					100%		100%	90	2.75^[a]	93		
CCn1cc(CNC(=O)C2(C)CC(c3ccc4ncc(Br)cc4c3)=NO2)c(C)n1 (centres unmarked) [compound 34]							94% and 98%	98	2.39^[a]	100	99	
CCn1cc(CNC(=O)C2(C(F)(F)F)CC(c3ccc4ncc(Br)cc4c3)=NO2)c(C)n1 (centres unmarked) [compound 35]					97%			90	3.02^[a]			
CC(C)NC(=O)C1(C(F)(F)F)CC(c2ccc3ncc(Br)cc3c2)=NO1 (centres unmarked) [compound 36]		79			100%	79		98	3.52^[a]			
CCn1cc(CNC(=O)C2(C)CC(c3ccc4ncc(I)cc4c3)=NO2)c(C)n1 (centres unmarked) [compound 39]							100%	100	2.49^[a]	100	100	
C#Cc1cnc2ccc(C3=NOC(C)(C(=O)NCc4cn(CC)nc4C)C3)cc2c1 (centres unmarked) [compound 43]	97	75					100%	94	2.14^[a]	100	100	
CCn1cc(CNC(=O)C2(OC)CC(c3ccc4ncc(Br)cc4c3)=NO2)c(C)n1 (centres unmarked) [compound 47]					100%	75		100	2.31^[a]	95		
CCCn1cc(CNC(=O)C2(C)CC(c3ccc4ncc(Br)cc4c3)=NO2)c(C)n1 (centres unmarked) [compound 49]					79% and 97%		98%	100	2.64^[a]	100	100	
CCOCCCNC(=O)C1(OC)CC(c2ccc3ncc(Br)cc3c2)=NO1 (centres unmarked) [compound 52]		88	71% and 75%		93% and 97%	71	100%		2.68^[a]	100		
CCOCCCNC(=O)C1(C(F)(F)F)CC(c2ccc3ncc(Br)cc3c2)=NO1 (centres unmarked) [compound 105]	86	71	70%		75%	79	100%		3.57^[a]			
CC1(C)OCC(CNC(=O)C2(C)CC(c3ccc4ncc(Br)cc4c3)=NO2)O1 (centres unmarked) [compound 129]	100				100%	88	80%		2.64^[a]		85	
C#Cc1cnc2ccc(C3=NOC(C)(C(=O)NCc4ccc(Cl)cc4Cl)C3)cc2c1 (centres unmarked) [compound 198]			98%		86%	86			3.73^[a]	95		
C#Cc1cnc2ccc(C3=NOC(C)(C(=O)NC(C)c4ccccn4)C3)cc2c1 (centres unmarked) [compound 206]					100%	71	94%		1.9^[a]		93	
C#Cc1cnc2ccc(C3=NOC(C)(C(=O)NCc4ccc5c(c4)CCO5)C3)cc2c1 (centres unmarked) [compound 219]			75%			71			2.78^[a]	99		
C#CCONC(=O)C1(C)CC(c2ccc3ncc(Br)cc3c2)=NO1 (centres unmarked) [compound 306]	100		71%		78%	75						2.22[a]
